Molecular target: T1, CYP17 (steroid 17-alpha-hydroxylase/17,20 lyase) (Homo sapiens, UniProt P05093)
T1 sequence (P05093 whole entry): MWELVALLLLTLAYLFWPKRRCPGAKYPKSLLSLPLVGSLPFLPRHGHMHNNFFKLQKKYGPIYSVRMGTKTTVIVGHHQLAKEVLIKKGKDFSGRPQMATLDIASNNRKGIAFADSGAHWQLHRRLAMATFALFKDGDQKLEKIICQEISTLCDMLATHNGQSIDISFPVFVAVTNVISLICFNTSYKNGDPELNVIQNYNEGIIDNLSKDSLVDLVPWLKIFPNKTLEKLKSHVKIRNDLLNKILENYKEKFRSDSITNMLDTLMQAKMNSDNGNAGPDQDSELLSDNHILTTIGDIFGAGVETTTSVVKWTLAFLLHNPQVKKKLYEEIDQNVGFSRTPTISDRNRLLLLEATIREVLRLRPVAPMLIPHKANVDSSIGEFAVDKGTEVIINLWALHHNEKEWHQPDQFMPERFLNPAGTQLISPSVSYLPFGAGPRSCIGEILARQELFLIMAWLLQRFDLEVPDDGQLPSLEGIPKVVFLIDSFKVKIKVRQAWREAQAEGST
Assay: in vitro
Description: Inhibition of human CYP17 expressed in Escherichia coli at 2.5 uM

Row | SMILES | inhibition at 2.5 µM
1 | O=c1c([C@H](c2ccc(Br)cc2)n2ccnc2)coc2ccccc12 | 13%
2 | O=c1c([C@H](c2ccc([N+](=O)[O-])cc2)n2ccnc2)coc2ccccc12 | 12%
3 | O=c1c([C@@H](c2ccc([N+](=O)[O-])cc2)n2ccnc2)coc2ccccc12 | 20%

The next lines start with the values.

Row | inhibition at 2.5 µM | SMILES
4 | 6% | N#Cc1ccc([C@@H](c2coc3ccccc3c2=O)n2ccnc2)cc1
5 | 6% | N#Cc1ccc([C@H](c2coc3ccccc3c2=O)n2ccnc2)cc1
6 | 17% | O=c1c([C@@H](c2ccc(Br)cc2)n2ccnc2)coc2ccccc12

Source: ChEMBL document CHEMBL1139479, “Enantioselective nonsteroidal aromatase inhibitors identified through a multidisciplinary medicinal chemistry approach” (J Med Chem, 2005)
